# PubChem BioAssay AID328 (DTP/NCI, 2004)
# “And” between values parts separate entries of the source, which are not always exact repeats. Identical values can stand only once. Toxic doses and inconclusive results are not listed.
# Tested on: BDF1 mice, P388 leukemia ip, median survival T/C
# Assay: NCI In Vivo Anticancer Drug Screen. Data for tumor model P388 Leukemia (intraperitoneal) in B6D2F1 (BDF1) mice
# Details: endpoint: median survival time, higher = longer survival
# How it was run: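 Compound-treated tumour-bearing mice were compared with vehicle-treated controls. Survival was recorded, and the value is the treated-group measurement divided by the control-group measurement (T/C).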
# [1] = dose: 50.0 mg/kg/injection, schedule: Q01DX009 (ip), vehicle: saline with Tween-80
# [2] = dose: 100.0 mg/kg/injection, schedule: Q01DX009 (ip), vehicle: saline with Tween-80
# [3] = dose: 200.0 mg/kg/injection, schedule: Q01DX009 (ip), vehicle: saline with Tween-80
# [4] = dose: 18.75 mg/kg/injection, schedule: Q01DX009 (ip), vehicle: saline sonified
# [5] = dose: 100.0 mg/kg/injection, schedule: Q04DX003 (ip), vehicle: saline
# [6] = dose: 200.0 mg/kg/injection, schedule: Q04DX003 (ip), vehicle: saline
# [7] = dose: 400.0 mg/kg/injection, schedule: Q04DX003 (ip), vehicle: saline
smiles,measurement,setting,value
NC1=NC(=S)C2N=C(N=Nc3ccc(C(=O)NC(CCC(=O)O)C(=O)O)cc3)N=C2N1 (configuration not stated),T/C,"dose: 1.56 mg/kg/injection, schedule: Q01DX009 (ip), vehicle: Klucel (hydroxypropylcellulose) (HPC)",120 % of control
same,T/C,"dose: 3.13 mg/kg/injection, schedule: Q01DX009 (ip), vehicle: Klucel (hydroxypropylcellulose) (HPC)",91 % of control
same,T/C,"dose: 6.25 mg/kg/injection, schedule: Q01DX009 (ip), vehicle: Klucel (hydroxypropylcellulose) (HPC)",87 % of control
same,T/C,"dose: 25.0 mg/kg/injection, schedule: Q04DX003 (ip), vehicle: Klucel (hydroxypropylcellulose) (HPC)",120 % of control
same,T/C,"dose: 50.0 mg/kg/injection, schedule: Q04DX003 (ip), vehicle: Klucel (hydroxypropylcellulose) (HPC)",112 % of control
CSc1ccc(NC(=O)NN(c2ccccc2)C2CCS(=O)(=O)C2)cc1 (configuration not stated),T/C,[1],100 % of control
same,T/C,[2],102 % of control
same,T/C,[3],101 % of control
COc1cc(Cc2nccc3cc(OC)c(OC)cc23)c(C(C)=O)cc1OC,T/C,"dose: 8.0 mg/kg/injection, schedule: Q01DX009 (ip), vehicle: saline",153 % of control
same,T/C,"dose: 8.2 mg/kg/injection, schedule: Q01DX009 (ip), vehicle: saline sonified",150 % of control
same,T/C,"dose: 12.5 mg/kg/injection, schedule: Q01DX009 (ip), vehicle: saline sonified",155 % of control
same,T/C,[4],195 % of control
CN(C)c1ccc(NC(=O)C(c2ccccc2)c2ccccc2)cc1,T/C,"dose: 50.0 mg/kg/injection, schedule: Q01DX005 (ip), vehicle: saline",86 % of control
same,T/C,"dose: 100.0 mg/kg/injection, schedule: Q01DX005 (ip), vehicle: saline",90 % of control
same,T/C,"dose: 200.0 mg/kg/injection, schedule: Q01DX005 (ip), vehicle: saline",109 % of control
[Cl][Co][Cl].[NH-]CC[NH-].[NH-]CC[NH-],T/C,"dose: 25.0 mg/kg/injection, schedule: Q04DX002 (ip), vehicle: saline",100 % of control
same,T/C,"dose: 50.0 mg/kg/injection, schedule: Q04DX002 (ip), vehicle: saline",109 % of control
same,T/C,"dose: 100.0 mg/kg/injection, schedule: Q04DX002 (ip), vehicle: saline",104 % of control and 111 % of control
CSc1nc2nc(Cl)c(Cl)nc2[nH]1,T/C,"dose: 6.25 mg/kg/injection, schedule: Q01DX009 (ip), vehicle: saline",104 % of control
same,T/C,"dose: 25.0 mg/kg/injection, schedule: Q01DX009 (ip), vehicle: saline",96 % of control
same,T/C,"dose: 25.0 mg/kg/injection, schedule: Q04DX003 (ip), vehicle: saline",99 % of control
same,T/C,"dose: 50.0 mg/kg/injection, schedule: Q04DX003 (ip), vehicle: saline",102 % of control and 109 % of control
same,T/C,"dose: 100.0 mg/kg/injection, schedule: Q01DX009 (ip), vehicle: saline",88 % of control
same,T/C,[5],95 % of control and 103 % of control
same,T/C,"dose: 200.0 mg/kg/injection, schedule: Q01DX009 (ip), vehicle: saline",104 % of control
same,T/C,[6],109 % of control
same,T/C,[7],103 % of control
Cc1nc2c(N)nn(C)c2nc1C,T/C,"dose: 100.0 mg/kg/injection, schedule: Q04DX003 (ip), vehicle: saline with Tween-80",100 % of control
same,T/C,"dose: 200.0 mg/kg/injection, schedule: Q04DX003 (ip), vehicle: saline with Tween-80",100 % of control
CCOC(=O)C1CC2(CCC1N)c1ccccc1-c1ccccc12 (configuration not stated),T/C,[1],102 % of control
same,T/C,[2],99 % of control
same,T/C,[3],108 % of control
CC(C)(COC(=O)c1cc(Br)ccc1Br)NC(=O)c1cc(Br)ccc1Br,T/C,[1],91 % of control
same,T/C,[2],97 % of control
same,T/C,[3],97 % of control
Cc1cc2nc[nH]c(=O)n2n1,T/C,[1],110 % of control
same,T/C,[2],90 % of control
CC1C(=O)OCC2=CCN3CCC(OC(=O)C(C)C1(C)O)C23 (configuration not stated),T/C,"dose: 10.0 mg/kg/injection, schedule: Q01DX010 (ip), vehicle: saline",100 % of control
same,T/C,"dose: 20.0 mg/kg/injection, schedule: Q01DX010 (ip), vehicle: saline",105 % of control
same,T/C,"dose: 25.0 mg/kg/injection, schedule: Q01DX010 (ip), vehicle: carboxymethylcellulose (CMC)",122 % of control
same,T/C,"dose: 40.0 mg/kg/injection, schedule: Q01DX010 (ip), vehicle: saline",150 % of control
same,T/C,"dose: 50.0 mg/kg/injection, schedule: Q01DX010 (ip), vehicle: carboxymethylcellulose (CMC)",111 % of control
same,T/C,"dose: 100.0 mg/kg/injection, schedule: Q01DX010 (ip), vehicle: carboxymethylcellulose (CMC)",88 % of control
C[C@H]1[C@H](C)CC[C@]2(CO)CC[C@]3(C)C(=CC[C@@H]4[C@@]5(C)CC[C@@H](O)C(C)(C)[C@@H]5CC[C@]43C)[C@H]12,T/C,"dose: 50.0 mg/kg/injection, schedule: Q01DX010 (ip), vehicle: acetone",120 % of control
same,T/C,"dose: 400.0 mg/kg/injection, schedule: Q01DX010 (ip), vehicle: acetone",110 % of control
CC(=O)Nc1ccc2ccc(Cl)nc2n1,T/C,[5],95 % of control
same,T/C,[6],100 % of control
same,T/C,[7],104 % of control
O=[N+]([O-])c1ccc(S)cc1,T/C,[4],100 % of control
same,T/C,"dose: 37.5 mg/kg/injection, schedule: Q01DX009 (ip), vehicle: saline sonified",100 % of control
same,T/C,"dose: 75.0 mg/kg/injection, schedule: Q01DX009 (ip), vehicle: saline sonified",117 % of control
CCOC(=O)C1(C(=O)OCC)COC(C)(C)OC1,T/C,"dose: 50.0 mg/kg/injection, schedule: Q01DX009 (ip), vehicle: Klucel (hydroxypropylcellulose) (HPC)",115 % of control
same,T/C,[5],104 % of control
same,T/C,"dose: 175.0 mg/kg/injection, schedule: Q04DX003 (ip), vehicle: saline",118 % of control
same,T/C,"dose: 200.0 mg/kg/injection, schedule: Q01DX009 (ip), vehicle: Klucel (hydroxypropylcellulose) (HPC)",105 % of control
same,T/C,[6],100 % of control and 113 % of control
same,T/C,"dose: 265.0 mg/kg/injection, schedule: Q04DX003 (ip), vehicle: saline",113 % of control
same,T/C,"dose: 400.0 mg/kg/injection, schedule: Q01DX009 (ip), vehicle: Klucel (hydroxypropylcellulose) (HPC)",105 % of control
same,T/C,[7],113 % of control and 122 % of control
same,T/C,"dose: 600.0 mg/kg/injection, schedule: Q04DX003 (ip), vehicle: saline",109 % of control
CN1C(=O)C(C2Sc3ccccc3NC2=O)SC1=S (configuration not stated),T/C,[1],102 % of control
same,T/C,[2],104 % of control
same,T/C,[3],99 % of control
COC(=O)c1sccc1C=O,T/C,"dose: 100.0 mg/kg/injection, schedule: Q04DX003 (ip), vehicle: Klucel (hydroxypropylcellulose) (HPC)",96 % of control
same,T/C,"dose: 200.0 mg/kg/injection, schedule: Q04DX003 (ip), vehicle: Klucel (hydroxypropylcellulose) (HPC)",96 % of control
same,T/C,"dose: 400.0 mg/kg/injection, schedule: Q04DX003 (ip), vehicle: Klucel (hydroxypropylcellulose) (HPC)",92 % of control
CN(C)C1CCc2[nH]c3c(F)cc(F)cc3c2C1 (configuration not stated),T/C,"dose: 3.13 mg/kg/injection, schedule: Q01DX009 (ip), vehicle: saline with Tween-80",95 % of control
same,T/C,"dose: 6.25 mg/kg/injection, schedule: Q01DX009 (ip), vehicle: saline with Tween-80",103 % of control
same,T/C,"dose: 12.5 mg/kg/injection, schedule: Q01DX009 (ip), vehicle: saline with Tween-80",101 % of control
CC1(C2CC2)NC(=O)NC1=O (configuration not stated),T/C,"dose: 75.0 mg/kg/injection, schedule: Q01DX009 (ip), vehicle: saline",113 % of control
same,T/C,"dose: 100.0 mg/kg/injection, schedule: Q01DX001 (ip), vehicle: saline",113 % of control
same,T/C,"dose: 150.0 mg/kg/injection, schedule: Q01DX009 (ip), vehicle: saline",104 % of control
same,T/C,"dose: 200.0 mg/kg/injection, schedule: Q01DX001 (ip), vehicle: saline",104 % of control
same,T/C,"dose: 300.0 mg/kg/injection, schedule: Q01DX009 (ip), vehicle: saline",100 % of control
same,T/C,"dose: 400.0 mg/kg/injection, schedule: Q01DX001 (ip), vehicle: saline",104 % of control
O=C1Cc2ccc3c(c2O1)C(=O)c1ccccc1C3=O,T/C,"dose: 100.0 mg/kg/injection, schedule: Q04DX002 (ip), vehicle: saline with Tween-80",106 % of control
same,T/C,"dose: 200.0 mg/kg/injection, schedule: Q04DX002 (ip), vehicle: saline with Tween-80",100 % of control
O=[N+]([O-])CC(OCCO)C(Cl)(Cl)Cl (configuration not stated),T/C,"dose: 3.12 mg/kg/injection, schedule: Q04DX003 (ip), vehicle: saline",95 % of control
same,T/C,"dose: 6.25 mg/kg/injection, schedule: Q01DX009 (ip), vehicle: acetone",110 % of control
same,T/C,"dose: 6.25 mg/kg/injection, schedule: Q04DX003 (ip), vehicle: saline",100 % of control
same,T/C,"dose: 12.5 mg/kg/injection, schedule: Q01DX009 (ip), vehicle: acetone",89 % of control
same,T/C,"dose: 12.5 mg/kg/injection, schedule: Q04DX003 (ip), vehicle: saline",95 % of control
same,T/C,"dose: 18.0 mg/kg/injection, schedule: Q04DX003 (ip), vehicle: saline with Tween-80",118 % of control
same,T/C,"dose: 28.0 mg/kg/injection, schedule: Q04DX003 (ip), vehicle: saline with Tween-80",90 % of control
same,T/C,"dose: 40.0 mg/kg/injection, schedule: Q04DX003 (ip), vehicle: saline with Tween-80",86 % of control
O=C1COc2ccccc2N1,T/C,"dose: 100.0 mg/kg/injection, schedule: Q01DX001 (ip), vehicle: Klucel (hydroxypropylcellulose) (HPC)",113 % of control
same,T/C,"dose: 200.0 mg/kg/injection, schedule: Q01DX001 (ip), vehicle: Klucel (hydroxypropylcellulose) (HPC)",100 % of control
